Assay: not given
`O=C(Nc1ncc([N+](=O)[O-])s1)c1c(F)cccc1Cl` gave a logP of 3.
`O=C(Nc1ncc([N+](=O)[O-])s1)c1ccccc1F` gave a logP of 2.71.
For `O=C(Nc1ncc([N+](=O)[O-])s1)c1c(F)cccc1F`, the logP was 2.44.
In the case of `O=C(Nc1ncc([N+](=O)[O-])s1)c1ccc(F)cc1`, the logP was 3.12.
In the case of `O=C(Nc1ncc([N+](=O)[O-])s1)c1cc(Cl)ccc1Cl`, the logP was 3.57.
For `CC(=O)Oc1ccccc1C(=O)Nc1ncc([N+](=O)[O-])s1`, the logP was 2.41.

Assay: method code SF-AS, from DOI: 10.1002/(sici)1521-3838(199801)17:01<01::aid-qsar1>3.0.co;2-a
`O=C(Nc1ncc([N+](=O)[O-])s1)c1cc(Br)ccc1Br` showed a logP of 3.75.
With `O=C(Nc1ncc([N+](=O)[O-])s1)c1ccccc1Br` the logP was 3.09.
Molecule `O=C(Nc1ncc([N+](=O)[O-])s1)c1ccc(Cl)cc1Cl` has a logP of 3.62.
In the case of `O=C(Nc1ncc([N+](=O)[O-])s1)c1cc(Cl)cc(Cl)c1`, the logP was 4.14.
In the case of `O=C(Nc1ncc([N+](=O)[O-])s1)c1ccccc1`, the logP was 2.97.
Molecule `O=C(Nc1ncc([N+](=O)[O-])s1)c1cccc(Cl)c1` has a logP of 3.61.
`O=C(Nc1ncc([N+](=O)[O-])s1)c1ccc(Br)cc1` showed a logP of 3.58.
For `O=C(Nc1ncc([N+](=O)[O-])s1)c1cccc(Br)c1`, the logP was 3.8.
In the case of `O=C(Nc1ncc([N+](=O)[O-])s1)c1ccc(Cl)c(Cl)c1`, the logP was 4.14.

— the SangsterLogP compilation
